Assay results from patent US10391095B2, “DNA-PK inhibitors” (Vertex Pharmaceuticals Incorporated, priority 2012, dated 2019).

These molecules were tested against DNA-PK (Homo sapiens, UniProt P78527) (assay: DNA-PK inhibition assay (radiometric, 33P-ATP)). Details: 100 μM ATP, competitive tight-binding fit.
Assay type: biochemical
Description: Compounds were screened for their ability to inhibit DNA-PK kinase using a standard radiometric assay. Briefly, in this kinase assay the transfer of the terminal ^33P-phosphate in ^33P-ATP to a peptide substrate is interrogated. The assay was carried out in 384-well plates to a final volume of 50 μL per well containing approximately 6 nM DNA-PK, 50 mM HEPES (pH 7.5), 10 mM MgCl2, 25 mM NaCl, 0.01% BSA, 1 mM DTT, 10 μg/mL sheared double-stranded DNA (obtained from Sigma), 0.8 mg/mL DNA-PK peptide ([…] obtained from American Peptide), and 100 μM ATP. Accordingly, compounds of the invention were dissolved in DMSO to make 10 mM initial stock solutions. Serial dilutions in DMSO were then made to obtain the final solutions for the assay. A 0.75 μL aliquot of DMSO or inhibitor in DMSO was added to each well, followed by the addition of ATP substrate solution containing ^33P-ATP (obtained from Perkin Elmer). The reaction was started by the addition of DNA-PK, peptide and ds-DNA. After 45 min, the reaction was quenched with 25 μL of 5% phosphoric acid. The reaction mixture was transferred to MultiScreen HTS 384-well PH plates (obtained from Millipore), allowed to bind for one hour, and washed three times with 1% phosphoric acid. Following the addition of 50 μL of Ultima Gold™ high efficiency scintillant (obtained from Perkin Elmer), the samples were counted in a Packard TopCount NXT Microplate Scintillation and Luminescence Counter (Packard BioScience). The Ki values were calculated using Microsoft Excel Solver macros to fit the data to the kinetic model for competitive tight-binding inhibition.
Work on `C[C@H](CNc1cc(-c2ccc(N3CCN(C)CC3)nc2)ncn1)c1cccc2c1OCC2` [Compound 132] yielded a Ki of under 30 nM.
`Cc1ccc(-c2cc(NC[C@@H](C)c3cccc4c3OCC4)ncn2)cn1` [Compound 134] showed a Ki of under 30 nM.
`CC(=O)N1CCN(c2ccc(-c3cc(NCC(C)c4ccccc4OCc4ccccc4)ncn3)cn2)CC1` (centres unmarked) [Compound 135] gave a Ki of under 30 nM.
`CC(=O)N1CCN(c2ccc(-c3cc(NCC(C)c4ccccc4O)ncn3)cn2)CC1` (centres unmarked) [Compound 136] gave a Ki of under 30 nM.
For `CNc1ncc(-c2cc(NC[C@@H](C)c3ccccc3OC)ncn2)cn1` [Compound 137], the Ki was under 30 nM.
With `COc1ccccc1[C@H](C)CNc1cc(-c2cnc(C)nc2)ncn1` [Compound 138] the Ki was under 30 nM.
`COCCn1ncc2cc(-c3cc(NC[C@@H](C)c4ccccc4OC)ncn3)cnc21` [Compound 139] gave a Ki of under 30 nM.
In the case of `COc1ccccc1[C@H](C)CNc1cc(-c2cnc3c(cnn3CC3CC3)c2)ncn1` [Compound 140], the Ki is reported as under 30 nM.
Work on `CN1CCN(c2ccc(-c3cc(NCCc4ccccc4OC4CC4)ncn3)cn2)CC1=O` [Compound 142] yielded a Ki of under 30 nM.
In the case of `COc1cscc1C(C)CNc1cc(-c2ccc(C)nc2)ncn1` (centres unmarked) [Compound 144], the Ki is reported as under 30 nM.
For `CC(CNc1cc(-c2cnc3c(cnn3C3CCN(C)CC3)c2)ncn1)c1ccccc1OC1CC1` (centres unmarked) [Compound 145], the Ki was under 30 nM.
`COc1cscc1C(C)CNc1cc(-c2ccc(N3CCN(C)CC3)nc2)ncn1` (centres unmarked) [Compound 146] gave a Ki of under 30 nM.
`CCNC(=O)Cn1ncc2cc(-c3cc(NC[C@@H](C)c4ccccc4OC)ncn3)cnc21` [Compound 147] gave a Ki of under 30 nM.
In the case of `CC(CNc1cc(-c2cnc3c(cnn3C3CCN(C)CC3)c2)ncn1)c1ccccc1O` (centres unmarked) [Compound 151], the Ki is reported as under 30 nM.
`CCOc1ccccc1[C@H](C)CNc1cc(-c2ccc(N3CCN(C)CC3)nc2)ncn1` [Compound 152] showed a Ki of under 30 nM.
Molecule `CNC(=O)c1ccc(C(C)CNc2cc(-c3cnc4c(cnn4CCO)c3)ncn2)c(OC)c1` (centres unmarked) [Compound 153] has a Ki of under 30 nM.
Molecule `CNC(=O)c1ccc(C(C)CNc2cc(-c3cnc4c(cnn4CCOC)c3)ncn2)c(OC)c1` (centres unmarked) [Compound 154] has a Ki of under 30 nM.
In the case of `CNC(=O)c1ccc(C(C)CNc2cc(-c3cnc4c(cnn4C4CCN(C)CC4)c3)ncn2)c(OC)c1` (centres unmarked) [Compound 155], the Ki is reported as under 30 nM.
Molecule `COc1cc(C(=O)NO)ccc1C(C)CNc1cc(-c2ccc(C)nc2)ncn1` (centres unmarked) [Compound 156] has a Ki of under 30 nM.
In the case of `CONC(=O)c1ccc(C(C)CNc2cc(-c3ccc(C)nc3)ncn2)c(OC)c1` (centres unmarked) [Compound 157], the Ki is reported as under 30 nM.
In the case of `COc1cc(C(=O)NC2CC2)ccc1C(C)CNc1cc(-c2ccc(C)nc2)ncn1` (centres unmarked) [Compound 158], the Ki is reported as under 30 nM.
With `COc1cc(C(=O)NC2CCCC2)ccc1C(C)CNc1cc(-c2ccc(C)nc2)ncn1` (centres unmarked) [Compound 159] the Ki was under 30 nM.
In the case of `Cc1ccc(-c2cc(NCC(C)c3cnccc3OC3CC3)ncn2)cn1` (centres unmarked) [Compound 165], the Ki is reported as under 30 nM.
`CNC(=O)c1ccc(C(C)CNc2cc(-c3cnc4[nH]ncc4c3)ncn2)c(OC)c1` (centres unmarked) [Compound 167] gave a Ki of under 30 nM.
Work on `COc1ccccc1[C@H](C)CNc1cc(-c2cnc3c(cnn3C)c2)ncn1` [Compound 172] yielded a Ki of under 30 nM.
In the case of `COc1ccccc1[C@H](C)CNc1cc(-c2cnc3c(ccn3C)c2)ncn1` [Compound 173], the Ki is reported as under 30 nM.
`CNC(=O)c1ccc([C@H](C)CNc2cc(-c3ccc(C)nc3)ncn2)c(OC)c1` [Compound 175] gave a Ki of under 30 nM.
With `COCCn1ncc2cc(-c3cc(NCC(C)c4cnccc4OC4CC4)ncn3)cnc21` (centres unmarked) [Compound 176] the Ki was under 30 nM.
`CC(CNc1cc(-c2ccc(N3CCN(C)CC3)nc2)ncn1)c1cnccc1OC1CC1` (centres unmarked) [Compound 177] was tested, and the Ki was under 30 nM.
With `COc1cc(N)ccc1C(C)CNc1cc(-c2ccc(C)nc2)ncn1` (centres unmarked) [Compound 178] the Ki was under 30 nM.
Work on `COc1ccccc1[C@H](C)CNc1cc(-c2cnc3c(cnn3C3COC3)c2)ncn1` [Compound 179] yielded a Ki of under 30 nM.
Work on `Cc1ccc(-c2cc(NCC(C)c3ccccc3OCCCO)ncn2)cn1` (centres unmarked) [Compound 182] yielded a Ki of under 30 nM.
`Cc1ccc(-c2cc(NCC(C)c3ccccc3OC3CCCCC3)ncn2)cn1` (centres unmarked) [Compound 183] gave a Ki of under 30 nM.
`Cc1ccc(-c2cc(NCC(C)c3ccccc3OCC3CC3)ncn2)cn1` (centres unmarked) [Compound 186] showed a Ki of under 30 nM.
For `CNC(=O)c1ccc(C(C)CNc2cc(-c3cnc4c(cnn4C)c3)ncn2)c(OC)c1` (centres unmarked) [Compound 188], the Ki was under 30 nM.
`CNC(=O)c1ccc(C(C)CNc2cc(-c3cnc4c(ccn4C)c3)ncn2)c(OC)c1` (centres unmarked) [Compound 189] was tested, and the Ki was under 30 nM.
`CNC(=O)c1ccc(C(C)CNc2cc(-c3cnc(C)nc3)ncn2)c(OC)c1` (centres unmarked) [Compound 193] showed a Ki of under 30 nM.
With `Cc1ccc(-c2cc(NCC(C)c3ccccc3OCC3CCCC3)ncn2)cn1` (centres unmarked) [Compound 194] the Ki was under 30 nM.
Work on `Cc1ccc(-c2cc(NCC(C)c3ccccc3OCC3CCCO3)ncn2)cn1` (centres unmarked) [Compound 195] yielded a Ki of under 30 nM.
Work on `COc1ccccc1[C@H](C)CNc1cc(-c2ccc(Nc3nc[nH]n3)nc2)ncn1` [Compound 198] yielded a Ki of under 30 nM.
`COc1ccccc1[C@H](C)CNc1cc(-c2ccc(NC(CO)CO)nc2)ncn1` [Compound 199] was tested, and the Ki was under 30 nM.
In the case of `CNCCCNc1ccc(-c2cc(NC[C@@H](C)c3ccccc3OC)ncn2)cn1` [Compound 201], the Ki is reported as under 30 nM.
`COc1ccccc1[C@H](C)CNc1cc(-c2ccc(NCC#N)nc2)ncn1` [Compound 202] was tested, and the Ki was under 30 nM.
Work on `COc1ccccc1[C@H](C)CNc1cc(-c2ccc(Nc3nn[nH]n3)nc2)ncn1` [Compound 203] yielded a Ki of under 30 nM.
For `COc1ccccc1[C@H](C)CNc1cc(-c2ccc(NCC3(O)CC3)nc2)ncn1` [Compound 204], the Ki was under 30 nM.
In the case of `CNCCNc1ccc(-c2cc(NC[C@@H](C)c3ccccc3OC)ncn2)cn1` [Compound 205], the Ki is reported as under 30 nM.
In the case of `COc1ccccc1[C@H](C)CNc1cc(-c2ccnc(NCCCO)c2)ncn1` [Compound 206], the Ki is reported as under 30 nM.
With `CNCCCNc1cc(-c2cc(NC[C@@H](C)c3ccccc3OC)ncn2)ccn1` [Compound 209] the Ki was under 30 nM.
Molecule `COc1ccccc1[C@H](C)CNc1cc(-c2ccnc(NCCSC)c2)ncn1` [Compound 210] has a Ki of under 30 nM.
For `COc1ccccc1[C@H](C)CNc1cc(-c2ccnc(Nc3nn[nH]n3)c2)ncn1` [Compound 211], the Ki was under 30 nM.
Molecule `CC(CNc1cc(-c2cnc3[nH]ncc3c2)ncn1)c1ccccc1OC1COC1` (centres unmarked) [Compound 214] has a Ki of under 30 nM.
`COCCn1ncc2cc(-c3cc(NCC(C)c4ccccc4OC4COC4)ncn3)cnc21` (centres unmarked) [Compound 215] was tested, and the Ki was under 30 nM.
`CC(CNc1cc(-c2cnc3c(cnn3CC3CC3)c2)ncn1)c1ccccc1OC1COC1` (centres unmarked) [Compound 217] showed a Ki of under 30 nM.
With `COc1cc(C(=O)NCC(F)(F)F)ccc1C(C)CNc1cc(-c2ccc(C)nc2)ncn1` (centres unmarked) [Compound 218] the Ki was under 30 nM.
For `COCCn1ncc2cc(-c3cc(NCC(C)c4ccc(C(=O)NCC(F)(F)F)cc4OC)ncn3)cnc21` (centres unmarked) [Compound 220], the Ki was under 30 nM.
`COc1cc(C(=O)NOCc2ccccc2)ccc1C(C)CNc1cc(-c2ccc(C)nc2)ncn1` (centres unmarked) [Compound 222] was tested, and the Ki was under 30 nM.
`COc1ccccc1[C@H](C)CNc1cc(-c2ccc(N(C)C3CCN(C)CC3)nc2)ncn1` [Compound 223] gave a Ki of under 30 nM.
`CNC(=O)c1ccc(C(C)CNc2cc(-c3cnc4c(cnn4C[C@@H](O)CO)c3)ncn2)c(OC)c1` (some centres unmarked) [Compound 225] was tested, and the Ki was under 30 nM.
`COCCn1ncc2cc(-c3cc(NCC(C)c4cscc4OC)ncn3)cnc21` (centres unmarked) [Compound 227] was tested, and the Ki was under 30 nM.
Molecule `COc1cscc1C(C)CNc1cc(-c2cnc3c(cnn3C3CCN(C)CC3)c2)ncn1` (centres unmarked) [Compound 228] has a Ki of under 30 nM.
`COc1ccsc1C(C)CNc1cc(-c2cnc3c(cnn3CC3CC3)c2)ncn1` (centres unmarked) [Compound 232] showed a Ki of under 30 nM.
For `COc1ccsc1C(C)CNc1cc(-c2cnc3c(cnn3CCO)c2)ncn1` (centres unmarked) [Compound 233], the Ki was under 30 nM.
In the case of `Cc1ccc(-c2cc(NCC(C)c3cccc4cccnc34)ncn2)cn1` (centres unmarked) [Compound 235], the Ki is reported as under 30 nM.
`CC(CNc1cc(-c2ccc(N3CCN(C)CC3)nc2)ncn1)c1cccc2cccnc12` (centres unmarked) [Compound 236] gave a Ki of under 30 nM.
`CC(CNc1cc(-c2cnc3c(cnn3C3CCN(C)CC3)c2)ncn1)c1cccc2cccnc12` (centres unmarked) [Compound 237] showed a Ki of under 30 nM.
Work on `CCNC(=O)Cn1ncc2cc(-c3cc(NCC(C)c4ccc(C(=O)NC)cc4OC)ncn3)cnc21` (centres unmarked) [Compound 238] yielded a Ki of under 30 nM.
`CNC(=O)c1ccc(C(C)CNc2cc(-c3cnc4c(cnn4CCN4CCCC4=O)c3)ncn2)c(OC)c1` (centres unmarked) [Compound 239] gave a Ki of under 30 nM.
Molecule `Cc1ccc(-c2cc(NCC(C)c3ccccc3OC3CCC3)ncn2)cn1` (centres unmarked) [Compound 240] has a Ki of under 30 nM.
`Cc1ccc(-c2cc(NCC(C)c3ccccc3OC3CCCC3)ncn2)cn1` (centres unmarked) [Compound 241] showed a Ki of under 30 nM.
In the case of `COc1ccccc1[C@H](C)CNc1cc(-c2ccc(NC3CCN(C4CC4)CC3)nc2)ncn1` [Compound 242], the Ki is reported as under 30 nM.
For `CNC(=O)c1ccc([C@H](C)CNc2cc(-c3ccc4c(cnn4C4COC4)c3)ncn2)c(OC)c1` [Compound 243], the Ki was under 30 nM.
`COc1ccc(Br)cc1C(C)CNc1cc(-c2ccc(C)nc2)ncn1` (centres unmarked) [Compound 245] gave a Ki of under 30 nM.
For `CNC(=O)c1ccc(C(C)CNc2cc(-c3ccc4c(cnn4CCO)c3)ncn2)c(OC)c1` (centres unmarked) [Compound 246], the Ki was under 30 nM.
`Cc1ccc(-c2cc(NCC(C)c3cccnc3OC3CCC3)ncn2)cn1` (centres unmarked) [Compound 247] gave a Ki of under 30 nM.
